For four molecules, remaining activity results are on record in article PMC7827406, “Structure–Activity Relationship (SAR) Study of Spautin-1 to Entail the Discovery of Novel NEK4 Inhibitors” (International Journal of Molecular Sciences, 2021).

Read-outs that look alike come from different tables or passages of the source.

Assay in all cases: biochemical
Common to all, as to set-up: Eurofins KinaseProfiler full panel at Km ATP, residual kinase activity (%) relative to DMSO

For one assay, the target named is T1, TSSK2(h) (Homo sapiens, UniProt Q96PF2).
T1 sequence (Q96PF2 1-358): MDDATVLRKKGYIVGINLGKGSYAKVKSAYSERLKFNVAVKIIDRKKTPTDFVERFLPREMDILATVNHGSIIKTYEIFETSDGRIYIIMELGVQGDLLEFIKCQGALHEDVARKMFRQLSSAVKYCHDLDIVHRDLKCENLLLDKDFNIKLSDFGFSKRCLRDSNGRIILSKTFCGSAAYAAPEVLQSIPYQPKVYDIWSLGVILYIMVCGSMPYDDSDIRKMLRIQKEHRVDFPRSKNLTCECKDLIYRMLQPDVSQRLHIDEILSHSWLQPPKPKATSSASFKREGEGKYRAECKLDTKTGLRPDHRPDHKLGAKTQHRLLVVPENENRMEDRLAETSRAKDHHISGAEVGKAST
An outline of the steps:
(§1)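 Radiometric kinase activity assays were run with ATP at Km and compounds at 10 µM, and remaining activity (%) was reported. A separate competitive binding screen measured DNA-tagged kinase displaced from immobilized active-site ligands by qPCR, giving percent kinase still bound at 10 µM compound in DMSO.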

Another assay has as its target EphA5(h) (Homo sapiens, UniProt P54756). Put shortly:
as §1

The target of the next assay is SBK1(h) (Homo sapiens, UniProt Q52WX2). An outline of the steps:
as §1

The target of the next assay is T2, CK1ε(h) (Homo sapiens, UniProt P49674).
T2 construct: gene CSNK1E
Put shortly: as §1

The target in the next assay is T3, LOK(h) (Homo sapiens, UniProt O94804).
T3 construct: gene STK10
Put shortly:
as §1

A further assay concerns the target JAK2(h) (Homo sapiens, UniProt O60674). An outline of the steps: as §1
For a further assay, the target named is T4, DMPK(h) (Homo sapiens, UniProt Q09013).
T4 sequence (Q09013 1-629): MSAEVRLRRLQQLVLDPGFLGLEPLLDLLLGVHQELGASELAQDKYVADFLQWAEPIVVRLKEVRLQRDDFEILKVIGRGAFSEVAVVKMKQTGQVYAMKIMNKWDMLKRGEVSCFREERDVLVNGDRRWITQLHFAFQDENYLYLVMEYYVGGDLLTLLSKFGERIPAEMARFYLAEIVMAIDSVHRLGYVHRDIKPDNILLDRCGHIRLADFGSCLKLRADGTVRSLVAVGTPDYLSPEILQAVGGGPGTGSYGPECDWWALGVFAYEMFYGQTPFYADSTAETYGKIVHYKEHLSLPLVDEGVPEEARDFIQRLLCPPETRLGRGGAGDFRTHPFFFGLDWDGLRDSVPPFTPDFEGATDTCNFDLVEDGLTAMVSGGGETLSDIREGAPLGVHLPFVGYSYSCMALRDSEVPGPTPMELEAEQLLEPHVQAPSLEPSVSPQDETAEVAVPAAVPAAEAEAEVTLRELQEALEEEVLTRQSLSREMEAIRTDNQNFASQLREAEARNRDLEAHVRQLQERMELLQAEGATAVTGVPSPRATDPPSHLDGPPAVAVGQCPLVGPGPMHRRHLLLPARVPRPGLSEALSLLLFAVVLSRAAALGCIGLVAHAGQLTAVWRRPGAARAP
An outline of the steps:
as §1

The next assay addresses T5, HRI(h) (Homo sapiens, UniProt Q9BQI3).
T5 construct: gene EIF2AK1
An outline of the steps: as §1

A further assay deals with T6, ICK(h) (Homo sapiens, UniProt Q9UPZ9).
T6 construct: gene CILK1
T6 sequence (Q9UPZ9 1-632): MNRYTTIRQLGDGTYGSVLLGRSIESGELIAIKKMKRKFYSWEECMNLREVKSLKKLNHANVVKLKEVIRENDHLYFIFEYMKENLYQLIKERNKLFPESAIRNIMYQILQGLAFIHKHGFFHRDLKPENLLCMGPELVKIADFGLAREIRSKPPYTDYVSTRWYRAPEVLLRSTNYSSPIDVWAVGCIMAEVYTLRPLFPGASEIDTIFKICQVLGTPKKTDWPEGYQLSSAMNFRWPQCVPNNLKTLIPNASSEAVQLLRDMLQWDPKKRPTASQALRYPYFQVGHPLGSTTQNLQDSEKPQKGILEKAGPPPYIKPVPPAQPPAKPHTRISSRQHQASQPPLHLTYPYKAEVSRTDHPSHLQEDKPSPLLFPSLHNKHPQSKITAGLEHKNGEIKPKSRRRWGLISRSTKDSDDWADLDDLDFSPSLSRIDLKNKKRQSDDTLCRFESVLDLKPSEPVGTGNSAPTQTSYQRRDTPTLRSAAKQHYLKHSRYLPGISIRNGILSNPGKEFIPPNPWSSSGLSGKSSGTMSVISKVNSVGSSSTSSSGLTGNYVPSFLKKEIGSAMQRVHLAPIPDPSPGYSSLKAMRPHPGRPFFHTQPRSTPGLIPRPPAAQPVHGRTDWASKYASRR
An outline of the steps: as §1

Setting [1] is: read-out: Residual activity (%) Spautin-1 5aa.
Setting [2] is: read-out: Residual activity (%) 5as.
[3] abbreviates: read-out: Residual activity (%) 5at.
Where [4] appears, read: read-out: Residual activity (%) 5ay.

T5 sequence (Q9BQI3 whole entry): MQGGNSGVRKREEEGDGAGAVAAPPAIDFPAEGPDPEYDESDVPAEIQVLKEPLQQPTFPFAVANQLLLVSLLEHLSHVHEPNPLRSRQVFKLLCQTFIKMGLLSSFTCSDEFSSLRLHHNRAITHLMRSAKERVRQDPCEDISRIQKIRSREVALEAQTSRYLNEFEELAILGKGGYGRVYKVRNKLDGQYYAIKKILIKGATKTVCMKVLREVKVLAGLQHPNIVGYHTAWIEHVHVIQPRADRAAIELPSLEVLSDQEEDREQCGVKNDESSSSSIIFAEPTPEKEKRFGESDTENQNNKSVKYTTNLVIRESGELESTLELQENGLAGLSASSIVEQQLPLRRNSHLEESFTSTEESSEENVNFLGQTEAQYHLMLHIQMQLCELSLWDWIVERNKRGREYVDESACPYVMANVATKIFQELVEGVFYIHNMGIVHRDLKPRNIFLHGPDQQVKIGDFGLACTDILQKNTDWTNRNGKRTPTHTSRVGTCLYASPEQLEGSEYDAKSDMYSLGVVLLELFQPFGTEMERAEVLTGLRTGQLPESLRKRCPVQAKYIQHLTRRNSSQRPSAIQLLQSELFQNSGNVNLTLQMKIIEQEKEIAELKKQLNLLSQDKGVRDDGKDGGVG
T3 sequence (O94804 whole entry): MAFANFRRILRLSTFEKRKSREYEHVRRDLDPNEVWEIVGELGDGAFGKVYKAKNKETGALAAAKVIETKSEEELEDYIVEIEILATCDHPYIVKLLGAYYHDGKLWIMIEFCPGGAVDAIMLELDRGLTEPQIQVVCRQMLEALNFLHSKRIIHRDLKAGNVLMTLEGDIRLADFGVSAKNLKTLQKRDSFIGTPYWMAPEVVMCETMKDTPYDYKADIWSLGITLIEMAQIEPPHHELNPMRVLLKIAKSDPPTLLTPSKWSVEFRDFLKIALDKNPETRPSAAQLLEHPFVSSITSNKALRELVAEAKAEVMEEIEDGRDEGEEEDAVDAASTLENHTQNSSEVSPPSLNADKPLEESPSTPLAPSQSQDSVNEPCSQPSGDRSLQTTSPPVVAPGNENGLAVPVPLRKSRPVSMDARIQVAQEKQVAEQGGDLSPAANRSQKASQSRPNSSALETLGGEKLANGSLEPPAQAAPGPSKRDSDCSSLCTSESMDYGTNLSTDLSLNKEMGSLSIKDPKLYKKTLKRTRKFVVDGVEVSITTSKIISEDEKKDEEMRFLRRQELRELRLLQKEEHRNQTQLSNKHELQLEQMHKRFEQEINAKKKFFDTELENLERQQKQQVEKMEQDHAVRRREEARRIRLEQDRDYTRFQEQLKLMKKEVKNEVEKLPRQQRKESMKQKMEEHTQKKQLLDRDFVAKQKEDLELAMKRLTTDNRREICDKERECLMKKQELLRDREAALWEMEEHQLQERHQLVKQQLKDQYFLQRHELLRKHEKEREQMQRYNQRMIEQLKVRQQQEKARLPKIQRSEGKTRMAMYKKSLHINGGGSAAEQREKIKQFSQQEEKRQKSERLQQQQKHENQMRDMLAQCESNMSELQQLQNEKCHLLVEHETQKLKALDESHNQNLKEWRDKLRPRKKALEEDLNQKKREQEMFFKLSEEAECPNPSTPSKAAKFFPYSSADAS
EphA5(h), sequence (P54756 whole entry): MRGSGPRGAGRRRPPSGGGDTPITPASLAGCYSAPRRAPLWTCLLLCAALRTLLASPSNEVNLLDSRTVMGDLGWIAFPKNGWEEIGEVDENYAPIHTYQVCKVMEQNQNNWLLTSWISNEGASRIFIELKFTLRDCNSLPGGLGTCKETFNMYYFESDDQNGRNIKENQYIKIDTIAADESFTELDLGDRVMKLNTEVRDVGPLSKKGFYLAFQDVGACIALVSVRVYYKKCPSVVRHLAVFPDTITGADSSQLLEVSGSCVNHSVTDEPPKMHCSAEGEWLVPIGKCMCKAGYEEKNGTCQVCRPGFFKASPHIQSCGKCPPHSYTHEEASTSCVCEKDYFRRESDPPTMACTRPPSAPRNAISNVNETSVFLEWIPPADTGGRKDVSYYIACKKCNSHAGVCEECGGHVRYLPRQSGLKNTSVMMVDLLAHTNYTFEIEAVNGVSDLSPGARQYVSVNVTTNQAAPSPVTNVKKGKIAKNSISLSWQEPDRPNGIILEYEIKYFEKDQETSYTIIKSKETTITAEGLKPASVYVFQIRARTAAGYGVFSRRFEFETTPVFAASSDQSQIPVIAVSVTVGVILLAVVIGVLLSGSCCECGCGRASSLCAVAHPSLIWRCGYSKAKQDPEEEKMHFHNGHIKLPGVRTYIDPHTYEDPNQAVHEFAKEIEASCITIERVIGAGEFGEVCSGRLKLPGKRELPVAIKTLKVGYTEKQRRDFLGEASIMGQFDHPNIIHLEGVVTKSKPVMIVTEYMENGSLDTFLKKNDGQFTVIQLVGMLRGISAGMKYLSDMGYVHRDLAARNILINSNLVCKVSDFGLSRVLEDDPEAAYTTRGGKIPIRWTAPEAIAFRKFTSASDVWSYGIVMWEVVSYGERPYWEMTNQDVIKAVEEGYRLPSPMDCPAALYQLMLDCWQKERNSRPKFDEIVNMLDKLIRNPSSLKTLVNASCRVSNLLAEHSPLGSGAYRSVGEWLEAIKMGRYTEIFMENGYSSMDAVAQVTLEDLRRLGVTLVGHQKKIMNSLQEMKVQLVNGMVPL
T2 sequence (P49674 whole entry): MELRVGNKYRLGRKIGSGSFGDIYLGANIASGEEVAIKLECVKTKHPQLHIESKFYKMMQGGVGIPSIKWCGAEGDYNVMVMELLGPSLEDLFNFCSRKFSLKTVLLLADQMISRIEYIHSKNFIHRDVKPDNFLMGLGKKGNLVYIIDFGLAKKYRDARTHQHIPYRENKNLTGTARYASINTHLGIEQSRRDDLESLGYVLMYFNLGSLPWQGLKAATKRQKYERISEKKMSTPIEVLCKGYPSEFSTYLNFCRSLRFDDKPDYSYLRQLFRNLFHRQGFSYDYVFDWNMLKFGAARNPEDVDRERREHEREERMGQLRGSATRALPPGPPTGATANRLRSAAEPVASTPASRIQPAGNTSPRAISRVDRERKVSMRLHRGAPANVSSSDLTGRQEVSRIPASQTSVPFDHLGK
SBK1(h), sequence (Q52WX2 whole entry): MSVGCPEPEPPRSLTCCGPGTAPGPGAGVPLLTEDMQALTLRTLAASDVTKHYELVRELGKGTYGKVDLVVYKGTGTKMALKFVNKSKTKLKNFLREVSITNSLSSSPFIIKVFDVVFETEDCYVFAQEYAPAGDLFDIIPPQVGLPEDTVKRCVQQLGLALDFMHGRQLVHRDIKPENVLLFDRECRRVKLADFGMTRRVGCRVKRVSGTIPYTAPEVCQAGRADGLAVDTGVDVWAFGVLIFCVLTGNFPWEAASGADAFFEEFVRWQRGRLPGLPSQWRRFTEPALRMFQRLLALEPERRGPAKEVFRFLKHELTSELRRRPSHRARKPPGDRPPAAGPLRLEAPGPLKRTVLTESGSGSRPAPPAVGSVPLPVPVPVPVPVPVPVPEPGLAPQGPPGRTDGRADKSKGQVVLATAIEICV
JAK2(h), sequence (O60674 whole entry): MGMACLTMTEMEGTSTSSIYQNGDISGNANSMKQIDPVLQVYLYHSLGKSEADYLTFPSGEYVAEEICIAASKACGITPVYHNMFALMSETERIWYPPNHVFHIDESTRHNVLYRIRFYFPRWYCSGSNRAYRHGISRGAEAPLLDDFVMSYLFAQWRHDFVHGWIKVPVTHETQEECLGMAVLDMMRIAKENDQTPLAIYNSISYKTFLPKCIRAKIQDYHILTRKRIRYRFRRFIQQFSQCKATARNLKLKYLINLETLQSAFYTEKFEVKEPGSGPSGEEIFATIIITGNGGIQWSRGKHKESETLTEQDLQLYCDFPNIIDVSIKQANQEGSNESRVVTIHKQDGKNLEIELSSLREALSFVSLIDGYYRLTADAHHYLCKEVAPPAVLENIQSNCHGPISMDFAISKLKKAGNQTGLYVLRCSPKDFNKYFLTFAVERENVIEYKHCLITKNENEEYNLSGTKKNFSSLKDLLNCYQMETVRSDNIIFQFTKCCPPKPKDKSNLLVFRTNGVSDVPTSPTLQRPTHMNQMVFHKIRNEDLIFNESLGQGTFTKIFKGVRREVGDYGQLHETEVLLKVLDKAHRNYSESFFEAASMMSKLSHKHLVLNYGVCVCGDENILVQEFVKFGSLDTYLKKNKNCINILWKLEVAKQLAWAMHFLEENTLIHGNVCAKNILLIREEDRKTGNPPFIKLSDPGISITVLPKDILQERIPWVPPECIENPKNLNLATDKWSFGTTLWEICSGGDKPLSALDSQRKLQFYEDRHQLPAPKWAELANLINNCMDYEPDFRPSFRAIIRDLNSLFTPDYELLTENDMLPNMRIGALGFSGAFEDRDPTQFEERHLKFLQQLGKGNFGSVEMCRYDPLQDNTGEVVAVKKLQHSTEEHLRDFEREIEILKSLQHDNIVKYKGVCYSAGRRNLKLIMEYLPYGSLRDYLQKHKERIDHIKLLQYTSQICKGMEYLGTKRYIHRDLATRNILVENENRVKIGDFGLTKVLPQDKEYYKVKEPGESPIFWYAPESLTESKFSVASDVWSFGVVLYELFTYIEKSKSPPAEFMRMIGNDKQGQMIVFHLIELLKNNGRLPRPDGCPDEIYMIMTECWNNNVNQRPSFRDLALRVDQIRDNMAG

Regarding `Fc1ccc(CNc2ncnc3ccc(F)cc23)cc1` [5aa, 6-Fluoro-N-(4-fluorobenzyl)-4-Quinazolinamine], the remaining activity at 10 µM is 101% at TSSK2(h) (setting [1]); 90% at EphA5(h) (setting [1]); 106% at SBK1(h) (setting [1]); 87% at CK1ε(h) (setting [1]); 91% on LOK(h) (setting [1]); 91% on JAK2(h) (setting [1]). Further, the remaining activity at 10 µM worked out at 79% at DMPK(h) (setting [1]), 96% at HRI(h) (setting [1]) and 97% at ICK(h) (setting [1]).

On to `Fc1ccc(CCNc2ncnc3ccc(F)cc23)cc1` [5as, 6-Fluoro-N-[2-(4-Fluorophenyl)Ethyl]-4-Quinazolinamine], for which the remaining activity at 10 µM on TSSK2(h) (setting [2]) came out at 97%; on EphA5(h) (setting [2]) it was 99%; on SBK1(h) (setting [2]), 95%; at CK1ε(h) (setting [2]) it was 76%; on LOK(h) (setting [2]) it was 81%; at JAK2(h) (setting [2]), 93%. For the same molecule, the results for the remaining activity at 10 µM at DMPK(h) (setting [2]), at HRI(h) (setting [2]) and on ICK(h) (setting [2]) were 90%, 99% and 90%, respectively.

Turning to `Fc1ccc2ncnc(NCCc3ccc(Cl)cc3)c2c1` [5at, N-[2-(4-Chlorophenyl)Ethyl]-6-Fluoro-4-Quinazolinamine], the remaining activity at 10 µM at TSSK2(h) (setting [3]) was found to be 103%; at EphA5(h) (setting [3]) it was 87%; at SBK1(h) (setting [3]), 103%; at CK1ε(h) (setting [3]), 82%; at LOK(h) (setting [3]) it was 87%; on JAK2(h) (setting [3]) it was 86%. Besides, the remaining activity at 10 µM was found to be 80% at DMPK(h) (setting [3]), 101% at HRI(h) (setting [3]) and 88% at ICK(h) (setting [3]).

For `COc1ccc2ncnc(Nc3cccc(F)c3)c2c1` [5ay, N-(3-Fluorophenyl)-6-Methoxy-4-Quinazolinamine], the remaining activity at 10 µM is 103% at TSSK2(h) (setting [4]); 95% on EphA5(h) (setting [4]); 83% on SBK1(h) (setting [4]); 78% at CK1ε(h) (setting [4]); 35% on LOK(h) (setting [4]); 108% on JAK2(h) (setting [4]). Besides, the remaining activity at 10 µM on DMPK(h) (setting [4]) was found to be 99%; on HRI(h) (setting [4]), 99%; on ICK(h) (setting [4]) it was 92%.
